# Assay results as given in publication PMC8490825 (Frontiers in Molecular Biosciences, 2021).
# Like-named read-outs stand apart in the source and are kept apart here. Where a SMILES comes first, the peptide text is derived from it. Bridges are numbered along the chain shown (N, C = ends).
# Experiments:
# [1] = tested on: endogenous K+ currents from non-transfected HEK293 cells; type: cell-based
# [2] = tested on: rKV2.1/hNaV1.1 chimera containing the paddles S3–S4 from DII from NaV1.1; type: cell-based
# [3] = target: T1, hNaV1.7 (Homo sapiens, UniProt Q15858); test: cell-based; type: cell-based
# [4] = target: hNaV1.1 (Homo sapiens, UniProt P35498); test: cell-based; type: cell-based
# [5] = target: hNaV1.4 (Homo sapiens, UniProt P35499); test: cell-based; type: cell-based; conditions: for IC50: N = 4, read-out: IC50 ± SEM, NaV1.4
# Chain of hNaV1.4 (P35499 whole entry, looked up): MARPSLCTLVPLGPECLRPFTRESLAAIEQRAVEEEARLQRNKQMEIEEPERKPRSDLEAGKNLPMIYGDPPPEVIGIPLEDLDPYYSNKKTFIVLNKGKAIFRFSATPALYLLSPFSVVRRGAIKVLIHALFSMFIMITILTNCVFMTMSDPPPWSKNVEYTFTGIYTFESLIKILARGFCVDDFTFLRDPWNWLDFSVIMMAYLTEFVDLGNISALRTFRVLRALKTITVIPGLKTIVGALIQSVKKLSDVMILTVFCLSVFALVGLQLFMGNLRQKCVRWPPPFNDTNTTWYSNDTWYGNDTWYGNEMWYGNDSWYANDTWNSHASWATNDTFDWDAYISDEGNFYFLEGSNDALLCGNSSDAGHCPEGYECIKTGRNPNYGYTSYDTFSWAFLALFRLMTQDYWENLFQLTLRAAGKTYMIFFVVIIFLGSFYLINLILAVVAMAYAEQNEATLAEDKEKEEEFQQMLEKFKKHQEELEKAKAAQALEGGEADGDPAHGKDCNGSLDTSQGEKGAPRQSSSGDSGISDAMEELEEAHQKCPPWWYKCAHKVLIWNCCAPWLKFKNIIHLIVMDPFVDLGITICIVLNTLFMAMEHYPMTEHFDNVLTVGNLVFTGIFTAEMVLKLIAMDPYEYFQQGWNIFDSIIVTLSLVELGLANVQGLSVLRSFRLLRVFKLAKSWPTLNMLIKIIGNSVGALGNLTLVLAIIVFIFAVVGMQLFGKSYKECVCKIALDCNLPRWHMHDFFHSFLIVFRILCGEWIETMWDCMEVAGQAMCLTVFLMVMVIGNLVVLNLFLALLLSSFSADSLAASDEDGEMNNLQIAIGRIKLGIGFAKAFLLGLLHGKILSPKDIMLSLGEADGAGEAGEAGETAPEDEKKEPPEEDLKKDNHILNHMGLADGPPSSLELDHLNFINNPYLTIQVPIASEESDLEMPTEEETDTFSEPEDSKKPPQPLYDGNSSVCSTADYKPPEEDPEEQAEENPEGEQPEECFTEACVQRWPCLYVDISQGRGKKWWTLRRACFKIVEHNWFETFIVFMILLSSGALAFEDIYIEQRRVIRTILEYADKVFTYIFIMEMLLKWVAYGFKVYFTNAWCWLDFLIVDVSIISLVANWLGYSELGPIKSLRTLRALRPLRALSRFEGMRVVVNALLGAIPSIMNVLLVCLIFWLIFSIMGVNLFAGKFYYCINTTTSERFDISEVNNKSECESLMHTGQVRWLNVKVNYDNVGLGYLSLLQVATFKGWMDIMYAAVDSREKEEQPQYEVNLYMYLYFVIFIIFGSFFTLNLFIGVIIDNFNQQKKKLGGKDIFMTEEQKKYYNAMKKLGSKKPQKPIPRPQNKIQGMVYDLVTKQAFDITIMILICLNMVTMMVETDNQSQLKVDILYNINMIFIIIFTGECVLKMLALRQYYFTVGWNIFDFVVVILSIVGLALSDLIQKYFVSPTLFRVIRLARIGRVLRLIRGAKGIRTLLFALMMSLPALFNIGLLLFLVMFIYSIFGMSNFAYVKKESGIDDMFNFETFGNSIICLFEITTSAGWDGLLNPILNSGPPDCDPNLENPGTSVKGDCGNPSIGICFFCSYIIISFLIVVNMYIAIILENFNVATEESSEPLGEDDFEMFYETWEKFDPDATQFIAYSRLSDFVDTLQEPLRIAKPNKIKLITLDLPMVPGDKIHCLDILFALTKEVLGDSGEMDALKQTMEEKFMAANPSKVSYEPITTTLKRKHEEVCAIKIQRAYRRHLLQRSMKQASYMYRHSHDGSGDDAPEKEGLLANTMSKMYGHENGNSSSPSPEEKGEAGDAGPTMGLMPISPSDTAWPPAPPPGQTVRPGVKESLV
# [6] = target: hNaV1.6 (Homo sapiens, UniProt Q9UQD0); test: cell-based; conditions: N = 4; SEM; read-out: IC50 ± SEM, NaV1.6
# [7] = target: hNaV1.5 (Homo sapiens, UniProt Q14524); test: cell-based; type: cell-based; conditions: for IC50: N = 3-4, read-out: IC50 ± SEM, NaV1.5
# Chain of hNaV1.5 (Q14524 whole entry, looked up): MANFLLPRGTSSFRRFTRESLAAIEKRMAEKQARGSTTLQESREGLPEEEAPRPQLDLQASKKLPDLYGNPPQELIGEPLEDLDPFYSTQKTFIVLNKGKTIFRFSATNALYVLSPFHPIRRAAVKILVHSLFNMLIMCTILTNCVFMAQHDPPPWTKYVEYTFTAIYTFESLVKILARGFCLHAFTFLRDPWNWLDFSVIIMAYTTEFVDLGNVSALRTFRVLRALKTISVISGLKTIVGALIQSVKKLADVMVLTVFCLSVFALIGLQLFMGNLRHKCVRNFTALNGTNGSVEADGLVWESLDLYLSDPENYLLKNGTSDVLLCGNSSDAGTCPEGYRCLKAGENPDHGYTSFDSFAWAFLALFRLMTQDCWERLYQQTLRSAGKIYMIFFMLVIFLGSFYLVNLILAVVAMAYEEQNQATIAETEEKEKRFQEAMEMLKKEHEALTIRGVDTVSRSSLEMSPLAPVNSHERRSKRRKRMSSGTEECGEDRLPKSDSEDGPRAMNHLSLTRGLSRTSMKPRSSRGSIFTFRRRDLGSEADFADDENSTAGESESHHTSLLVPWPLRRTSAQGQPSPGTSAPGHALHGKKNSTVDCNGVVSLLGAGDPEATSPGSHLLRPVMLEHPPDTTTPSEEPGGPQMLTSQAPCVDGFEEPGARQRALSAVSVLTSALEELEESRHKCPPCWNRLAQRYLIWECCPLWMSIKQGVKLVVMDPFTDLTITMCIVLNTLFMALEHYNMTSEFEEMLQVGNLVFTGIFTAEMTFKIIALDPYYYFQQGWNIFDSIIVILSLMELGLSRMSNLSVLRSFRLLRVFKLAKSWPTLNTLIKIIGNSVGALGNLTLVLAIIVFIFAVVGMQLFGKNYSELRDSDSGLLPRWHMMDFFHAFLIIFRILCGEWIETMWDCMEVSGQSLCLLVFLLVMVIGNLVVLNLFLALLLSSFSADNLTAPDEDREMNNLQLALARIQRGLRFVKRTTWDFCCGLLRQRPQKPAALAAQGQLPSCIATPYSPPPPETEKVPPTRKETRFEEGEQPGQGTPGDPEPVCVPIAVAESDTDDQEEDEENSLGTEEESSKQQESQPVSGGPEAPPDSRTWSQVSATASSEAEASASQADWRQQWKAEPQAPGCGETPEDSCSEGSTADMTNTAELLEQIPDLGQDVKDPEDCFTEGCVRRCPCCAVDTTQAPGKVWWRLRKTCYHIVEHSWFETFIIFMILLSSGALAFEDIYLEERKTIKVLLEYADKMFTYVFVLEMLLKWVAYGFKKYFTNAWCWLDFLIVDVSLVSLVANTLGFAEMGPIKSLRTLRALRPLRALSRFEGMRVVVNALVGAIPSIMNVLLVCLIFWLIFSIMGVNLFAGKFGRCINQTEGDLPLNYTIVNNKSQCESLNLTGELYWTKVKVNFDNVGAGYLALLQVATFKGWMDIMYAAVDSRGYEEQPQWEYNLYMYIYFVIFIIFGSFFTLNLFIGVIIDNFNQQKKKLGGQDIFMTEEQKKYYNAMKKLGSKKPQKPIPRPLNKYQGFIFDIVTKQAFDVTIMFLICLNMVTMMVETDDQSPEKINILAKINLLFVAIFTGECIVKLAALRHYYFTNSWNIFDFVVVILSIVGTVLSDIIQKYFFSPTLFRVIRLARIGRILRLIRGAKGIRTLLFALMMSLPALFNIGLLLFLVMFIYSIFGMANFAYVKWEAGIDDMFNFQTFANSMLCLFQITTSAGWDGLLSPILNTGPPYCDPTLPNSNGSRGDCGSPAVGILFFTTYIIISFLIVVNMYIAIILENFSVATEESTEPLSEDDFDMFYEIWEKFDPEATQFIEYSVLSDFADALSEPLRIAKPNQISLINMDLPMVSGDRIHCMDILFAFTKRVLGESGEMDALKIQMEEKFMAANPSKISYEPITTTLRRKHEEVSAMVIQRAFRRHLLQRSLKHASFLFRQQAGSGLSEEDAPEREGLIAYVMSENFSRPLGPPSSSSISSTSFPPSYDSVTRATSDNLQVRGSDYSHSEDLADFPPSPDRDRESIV
# [8] = target: hNaV1.2 (Homo sapiens, UniProt Q99250); test: cell-based; conditions: N = 3-6; SEM; read-out: IC50 ± SEM, NaV1.2
# [9] = target: hNaV1.3 (Homo sapiens, UniProt Q9NY46); test: cell-based; conditions: N = 3-4; SEM; read-out: IC50 ± SEM, NaV1.3
# [10] = target: T1, hNaV1.7; type: cell-based; conditions: SEM
# [11] = N = 3-4, SEM, read-out: IC50 ± SEM, NaV1.7
# [12] = N = 4-5, SEM, read-out: IC50 ± SEM, NaV1.1
smiles,measurement,setting,value
COC(=O)C1=C(C)NC(C)=C(C(=O)OC)C1c1ccccc1[N+](=O)[O-] [nifedipine],effect on endogenous potassium currents of non-transfected HEK293 cells,[1],inhibited
same,effect on potassium currents of cells transfected with the chimera KV2.1/NaV1.1 VSDII,[2],sensitive
"CSCC[C@@H]1NC(=O)CNC(=O)[C@H](CC(C)C)NC(=O)[C@@H](NC(=O)[C@H](CC(=O)O)NC(=O)[C@H](CC(=O)O)NC(=O)CN)CSSC[C@@H]2NC(=O)[C@@H]3CSSC[C@@H](C(=O)N[C@@H](CCCCN)C(=O)N[C@@H](Cc4ccc(O)cc4)C(=O)N[C@@H](CCC(N)=O)C(=O)N[C@@H](CC(C)C)C(=O)N[C@@H](Cc4c[nH]c5ccccc45)C(=O)O)NC(=O)[C@H](Cc4c[nH]c5ccccc45)NC(=O)[C@H](C)NC(=O)[C@H](CC(=O)O)NC(=O)[C@H](CCCCN)NC(=O)[C@H](CCCNC(=N)N)NC(=O)[C@H](CO)NC(=O)[C@H](CSSC[C@H](NC(=O)[C@H](CO)NC(=O)[C@H](CO)NC(=O)[C@H](Cc4ccccc4)NC1=O)C(=O)N[C@@H](CC(=O)O)C(=O)N1CCC[C@H]1C(=O)N[C@@H](CC(N)=O)C(=O)N[C@@H](CC(N)=O)C(=O)N[C@@H](CC(=O)O)C(=O)N[C@@H](CCCCN)C(=O)N3)NC(=O)[C@H](CCCCN)NC(=O)[C@H](CCCNC(=N)N)NC(=O)[C@H](CC(N)=O)NC(=O)[C@@H]1CCCN1C2=O [Peptide Q28A] (H-GDDCLGMFSSCDPNNDKCCPNRKCSRKDAWCKYQLW-OH; disulfide 4-19, 11-24, 18-31)",IC50,[3],> 1000 nM
same,IC50,[4],> 1000 nM
"CSCC[C@@H]1NC(=O)CNC(=O)[C@H](CC(C)C)NC(=O)[C@@H](NC(=O)[C@H](CC(=O)O)NC(=O)[C@H](CC(=O)O)NC(=O)CN)CSSC[C@@H]2NC(=O)[C@@H]3CSSC[C@@H](C(=O)N[C@@H](CCCCN)C(=O)N[C@@H](Cc4ccc(O)cc4)C(=O)N[C@@H](CCC(N)=O)C(=O)N[C@@H](CC(C)C)C(=O)N[C@@H](Cc4c[nH]c5ccccc45)C(=O)O)NC(=O)[C@H](Cc4c[nH]c5ccccc45)NC(=O)[C@H](CCC(N)=O)NC(=O)[C@H](C)NC(=O)[C@H](CCCCN)NC(=O)[C@H](CCCNC(=N)N)NC(=O)[C@H](CO)NC(=O)[C@H](CSSC[C@H](NC(=O)[C@H](CO)NC(=O)[C@H](CO)NC(=O)[C@H](Cc4ccccc4)NC1=O)C(=O)N[C@@H](CC(=O)O)C(=O)N1CCC[C@H]1C(=O)N[C@@H](CC(N)=O)C(=O)N[C@@H](CC(N)=O)C(=O)N[C@@H](CC(=O)O)C(=O)N[C@@H](CCCCN)C(=O)N3)NC(=O)[C@H](CCCCN)NC(=O)[C@H](CCCNC(=N)N)NC(=O)[C@H](CC(N)=O)NC(=O)[C@@H]1CCCN1C2=O [Peptide D27A] (H-GDDCLGMFSSCDPNNDKCCPNRKCSRKAQWCKYQLW-OH; disulfide 4-19, 11-24, 18-31)",IC50,[3],353 nM
same,IC50,[4],287 nM
"CSCC[C@@H]1NC(=O)CNC(=O)[C@H](CC(C)C)NC(=O)[C@@H](NC(=O)[C@H](CC(=O)O)NC(=O)[C@H](CC(=O)O)NC(=O)CN)CSSC[C@@H]2NC(=O)[C@@H]3CSSC[C@@H](C(=O)N[C@@H](CCCCN)C(=O)N[C@@H](Cc4ccc(O)cc4)C(=O)N[C@@H](CCC(N)=O)C(=O)N[C@@H](CC(C)C)C(=O)N[C@@H](Cc4c[nH]c5ccccc45)C(=O)O)NC(=O)[C@H](Cc4c[nH]c5ccccc45)NC(=O)[C@H](CCC(N)=O)NC(=O)[C@H](CC(=O)O)NC(=O)[C@H](CCCCN)NC(=O)[C@H](CCCNC(=N)N)NC(=O)[C@H](CO)NC(=O)[C@H](CSSC[C@H](NC(=O)[C@H](CO)NC(=O)[C@H](CO)NC(=O)[C@H](C)NC1=O)C(=O)N[C@@H](CC(=O)O)C(=O)N1CCC[C@H]1C(=O)N[C@@H](CC(N)=O)C(=O)N[C@@H](CC(N)=O)C(=O)N[C@@H](CC(=O)O)C(=O)N[C@@H](CCCCN)C(=O)N3)NC(=O)[C@H](CCCCN)NC(=O)[C@H](CCCNC(=N)N)NC(=O)[C@H](CC(N)=O)NC(=O)[C@@H]1CCCN1C2=O [Peptide F7A] (H-GDDCLGMASSCDPNNDKCCPNRKCSRKDQWCKYQLW-OH; disulfide 4-19, 11-24, 18-31)",IC50,[3],> 1000 nM
same,"inhibition of NaV1.7, in words",[3],completely lost its inhibition
same,IC50,[4],> 1000 nM
same,"inhibition of NaV1.1, in words",[4],completely lost its inhibition
"CC[C@H](C)[C@@H]1NC(=O)CNC(=O)[C@H](CC(C)C)NC(=O)[C@@H](NC(=O)CNC(=O)CN)CSSC[C@@H]2NC(=O)[C@@H]3CSSC[C@@H](C(=O)N[C@@H](CCCCN)C(=O)N[C@@H](Cc4c[nH]c5ccccc45)C(=O)N[C@@H](CCCCN)C(=O)N[C@@H](CC(C)C)C(=O)N[C@@H](Cc4c[nH]c5ccccc45)C(=O)O)NC(=O)[C@H](Cc4c[nH]c5ccccc45)NC(=O)[C@H](CCCNC(=N)N)NC(=O)[C@H](Cc4c[nH]cn4)NC(=O)[C@H](CCCCN)NC(=O)[C@H](CCCCN)NC(=O)[C@H](CO)NC(=O)[C@H](CSSC[C@H](NC(=O)[C@H](CO)NC(=O)[C@H](CO)NC(=O)[C@H](C)NC1=O)C(=O)N[C@@H](CC(=O)O)C(=O)N1CCC[C@H]1C(=O)N[C@@H](CCC(=O)O)C(=O)N[C@@H](CC(N)=O)C(=O)N[C@@H](CC(=O)O)C(=O)N[C@@H](CCCCN)C(=O)N3)NC(=O)[C@H](C(C)C)NC(=O)[C@H](CCCNC(=N)N)NC(=O)[C@H](CC(N)=O)NC(=O)[C@H](Cc1ccc(O)cc1)NC2=O [Tap1a-OPT2] (H-GGCLGIASSCDPENDKCCYNRVCSKKHRWCKWKLW-OH; disulfide 3-18, 10-23, 17-30)","inhibition of NaV1.4, in words",[5],did not significantly inhibit
same,loss of activity for NaV1.4 compared to Tap1a-OPT1,[5],at least 10 fold
same,IC50,[5],> 1000 nM
same,loss of activity for NaV1.7 compared to Tap1a-OPT1,[3],2 fold
same,IC50,[3]; [11],35 ± 2 nM
same,IC50,[6],75 ± 11 nM
same,IC50,[4]; [12],54 ± 9 nM
same,"inhibition of NaV1.5, in words",[7],did not significantly inhibit
same,IC50,[7],> 1000 nM
same,IC50,[8],43 ± 5 nM
same,IC50,[9],96 ± 9 nM
"CSCC[C@@H]1NC(=O)CNC(=O)[C@H](CC(C)C)NC(=O)[C@@H](NC(=O)[C@H](CC(=O)O)NC(=O)[C@H](CC(=O)O)NC(=O)CN)CSSC[C@@H]2NC(=O)[C@@H]3CSSC[C@@H](C(=O)N[C@@H](CCCCN)C(=O)N[C@@H](Cc4ccc(O)cc4)C(=O)N[C@@H](CCC(N)=O)C(=O)N[C@@H](CC(C)C)C(=O)N[C@@H](Cc4c[nH]c5ccccc45)C(=O)O)NC(=O)[C@H](Cc4c[nH]c5ccccc45)NC(=O)[C@H](CCC(N)=O)NC(=O)[C@H](CC(=O)O)NC(=O)[C@H](CCCCN)NC(=O)[C@H](CCCNC(=N)N)NC(=O)[C@H](CO)NC(=O)[C@H](CSSC[C@H](NC(=O)[C@H](CO)NC(=O)[C@H](CO)NC(=O)[C@H](Cc4ccccc4)NC1=O)C(=O)N[C@@H](CC(=O)O)C(=O)N1CCC[C@H]1C(=O)N[C@@H](CC(N)=O)C(=O)N[C@@H](CC(N)=O)C(=O)N[C@@H](C)C(=O)N[C@@H](CCCCN)C(=O)N3)NC(=O)[C@H](CCCCN)NC(=O)[C@H](CCCNC(=N)N)NC(=O)[C@H](CC(N)=O)NC(=O)[C@@H]1CCCN1C2=O [Peptide D15A] (H-GDDCLGMFSSCDPNNAKCCPNRKCSRKDQWCKYQLW-OH; disulfide 4-19, 11-24, 18-31)",IC50,[3],> 1000 nM
same,IC50,[4],> 1000 nM
"CC[C@H](C)[C@@H]1NC(=O)CNC(=O)[C@H](CC(C)C)NC(=O)[C@@H](NC(=O)CNC(=O)CN)CSSC[C@@H]2NC(=O)[C@@H]3CSSC[C@@H](C(=O)N[C@@H](CCCCN)C(=O)N[C@@H](Cc4c[nH]c5ccccc45)C(=O)N[C@@H](CCCCN)C(=O)N[C@@H](CC(C)C)C(=O)N[C@@H](Cc4c[nH]c5ccccc45)C(=O)O)NC(=O)[C@H](Cc4c[nH]c5ccccc45)NC(=O)[C@H](CCCNC(=N)N)NC(=O)[C@H](Cc4c[nH]cn4)NC(=O)[C@H](CCCCN)NC(=O)[C@H](CCCCN)NC(=O)[C@H](CO)NC(=O)[C@H](CSSC[C@H](NC(=O)[C@H](CO)NC(=O)[C@H](CO)NC(=O)[C@H](Cc4ccccc4)NC1=O)C(=O)N[C@@H](CC(=O)O)C(=O)N1CCC[C@H]1C(=O)N[C@@H](CCC(=O)O)C(=O)N[C@@H](CC(N)=O)C(=O)N[C@@H](CC(=O)O)C(=O)N[C@@H](CCCCN)C(=O)N3)NC(=O)[C@H](C(C)C)NC(=O)[C@H](CCCNC(=N)N)NC(=O)[C@H](CC(N)=O)NC(=O)[C@H](Cc1ccc(O)cc1)NC2=O [Tap1a-OPT1] (H-GGCLGIFSSCDPENDKCCYNRVCSKKHRWCKWKLW-OH; disulfide 3-18, 10-23, 17-30)",IC50,[5]; SEM,100 ± 19 nM
same,IC50,[3]; [11],3 ± 0.7 nM
same,IC50,[6],4.6 ± 2.3 nM
same,"Kon observed, hNaV1.7",[10],8.60 ± 1.7 × 10^−3 s^−1
same,IC50,[4]; [12],17 ± 3 nM
same,IC50,[7],> 1000 nM
same,IC50,[8],5 ± 1 nM
same,IC50,[9],6 ± 0.5 nM
